Measured values reported in patent publication US10239873B2, “7-azaindole or 4,7-diazaindole derivatives as IKKϵ epsilon and TBK1 inhibitor and pharmaceutical composition comprising same” (GREEN CROSS CORPORATION, priority 2015, dated 2019).

Target: T1, TBK1 (Homo sapiens, UniProt Q9UHD2)
T1 construct: purchased Promega (Invitrogen is also named in the same bracket) V4158; PR8031B; V3991 (not assigned to the two kinases)
T1 sequence (Q9UHD2 1-729): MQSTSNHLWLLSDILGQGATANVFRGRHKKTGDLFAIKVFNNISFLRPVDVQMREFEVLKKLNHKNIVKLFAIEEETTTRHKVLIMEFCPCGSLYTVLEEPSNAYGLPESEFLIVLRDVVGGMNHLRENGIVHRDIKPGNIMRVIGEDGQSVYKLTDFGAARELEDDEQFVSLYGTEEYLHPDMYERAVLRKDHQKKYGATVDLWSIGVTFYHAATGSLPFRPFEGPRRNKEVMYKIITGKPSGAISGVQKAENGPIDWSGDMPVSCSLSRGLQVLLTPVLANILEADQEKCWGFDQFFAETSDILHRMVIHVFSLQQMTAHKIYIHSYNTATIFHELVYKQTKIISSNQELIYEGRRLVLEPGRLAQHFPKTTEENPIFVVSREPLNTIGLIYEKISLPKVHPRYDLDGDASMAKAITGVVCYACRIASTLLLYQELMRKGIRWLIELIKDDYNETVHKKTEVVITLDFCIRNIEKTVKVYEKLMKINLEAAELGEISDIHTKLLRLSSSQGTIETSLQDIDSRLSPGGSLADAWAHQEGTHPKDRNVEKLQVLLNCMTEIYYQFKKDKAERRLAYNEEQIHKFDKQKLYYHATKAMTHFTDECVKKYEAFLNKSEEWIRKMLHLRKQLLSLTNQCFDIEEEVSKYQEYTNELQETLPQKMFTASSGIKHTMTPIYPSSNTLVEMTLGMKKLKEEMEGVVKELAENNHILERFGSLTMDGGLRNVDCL
Assay: ADP-Glo Kinase Assay, inhibition activity on TBK1
Type: biochemical
Experimental: Inhibition activities on IKKϵ and TBK1 were evaluated using the compounds of Examples 1 to 250.
The inhibition activities on IKKϵ and TBK1 were measured by a luminometer, IKKϵ/TBK1 Kinase Enzyme System (Promega, Ca# V4158; Invitrogen, PR8031B, Promega, Ca# V3991) and ADP-Glo Kinase Assay using ADP-Glo™ Kinase Analysis Kit (Promega, Ca# V9101) and a kinase reaction buffer [40 mM Tris(pH 7.5), 20 mM MgCl2, 0.1 mg/mL BSA] in accordance with the manufacturer's protocol.

| SMILES | IC50 [nM] |
| --- | --- |
| CC(C)(C)OC(=O)N1CC=C(c2c[nH]c3ncc(-c4ccc(CN5CCOCC5)cc4)cc23)CC1 [Example 154, tert-Butyl 4-(5-(4-(morpholinomethyl)phenyl)-1H-pyrrolo[2,3-b]pyridin-3-yl)-5,6-dihydropyridine-1(2H)-carboxylate] | 320 |
| CC(C)(C)OC(=O)N1CC=C(c2c[nH]c3ncc(-c4cccc(CN5CCOCC5)c4)cc23)CC1 [Example 156, tert-Butyl 4-(5-(3-(morpholinomethyl)phenyl)-1H-pyrrolo[2,3-b]pyridin-3-yl)-5,6-dihydropyridine-1(2H)-carboxylate] | 260 |
| CC(C)(C)OC(=O)N1CC=C(c2c[nH]c3ncc(-c4ccc(N5CCOCC5)nc4)cc23)CC1 [Example 157, tert-Butyl 4-(5-(6-morpholinopyridin-3-yl)-1H-pyrrolo[2,3-b]pyridin-3-yl)-5,6-dihydropyridine-1(2H)-carboxylate] | 360 |
| CC(C)(C)OC(=O)N1CC=C(c2c[nH]c3ncc(-c4ccc(N5CCOCC5)cc4)cc23)CC1 [Example 158, tert-Butyl 4-(5-(4-morpholinophenyl)-1H-pyrrolo[2,3-b]pyridin-3-yl)-5,6-dihydropyridine-1(2H)-carboxylate] | 410 |
| CC(C)(C)OC(=O)N1CC=C(c2c[nH]c3ncc(-c4ccc(N5CCCCC5)cc4)cc23)CC1 [Example 159, tert-Butyl 4-(5-(4-(piperidin-1-yl)phenyl)-1H-pyrrolo[2,3-b]pyridin-3-yl)-5,6-dihydropyridine-1(2H)-carboxylate] | 600 |
| CC(C)(C)OC(=O)N1CC=C(c2c[nH]c3ncc(-c4ccc5c(c4)OCO5)cc23)CC1 [Example 160, tert-Butyl 4-(5-(benzo[d][1,3]dioxol-5-yl)-1H-pyrrolo[2,3-b]pyridin-3-yl)-5,6-dihydropyridine-1(2H)-carboxylate] | 2000 |
| COc1ccc(-c2cnc3[nH]cc(C4=CCN(C(=O)OC(C)(C)C)CC4)c3c2)cn1 [Example 161, tert-Butyl 4-(5-(6-methoxypyridin-3-yl)-1H-pyrrolo[2,3-b]pyridin-3-yl)-5,6-dihydropyridine-1(2H)-carboxylate] | 600 |
| CC(C)(C)OC(=O)N1CC=C(c2c[nH]c3ncc(-c4ccc(S(C)(=O)=O)cc4)cc23)CC1 [Example 164, tert-Butyl 4-(5-(4-(methylsulfonyl)phenyl)-1H-pyrrolo[2,3-b]pyridin-3-yl)-5,6-dihydropyridine-1(2H)-carboxylate] | 250 |
| CC(=O)c1ccc(-c2cnc3[nH]cc(C4=CCN(C(=O)OC(C)(C)C)CC4)c3c2)cc1 [Example 166, tert-Butyl 4-(5-(4-acetylphenyl)-1H-pyrrolo[2,3-b]pyridin-3-yl)-5,6-dihydropyridine-1(2H)-carboxylate] | 950 |
| COC(=O)c1ccc(-c2cnc3[nH]cc(C4=CCN(C(=O)OC(C)(C)C)CC4)c3c2)cc1 [Example 167, tert-Butyl 4-(5-(4-(methoxycarbonyl)phenyl)-1H-pyrrolo[2,3-b]pyridin-3-yl)-5,6-dihydropyridine-1(2H)-carboxylate] | 1600 |
| CC(C)(C)OC(=O)N1CC=C(c2c[nH]c3ncc(-c4ccc(C#N)cc4)cc23)CC1 [Example 168, tert-Butyl 4-(5-(4-cyanophenyl)-1H-pyrrolo[2,3-b]pyridin-3-yl)-5,6-dihydropyridine-1(2H)-carboxylate] | 1300 |
| CC(C)(C)OC(=O)N1CC=C(c2c[nH]c3ncc(-c4cccc(C#N)c4)cc23)CC1 [Example 169, tert-Butyl 4-(5-(3-cyanophenyl)-1H-pyrrolo[2,3-b]pyridin-3-yl)-5,6-dihydropyridine-1(2H)-carboxylate] | 4500 |
| COc1ccc(-c2cnc3[nH]cc(C4=CCN(C(=O)OC5CCCC5)CC4)c3c2)cc1F [Example 171, Cyclopentyl 4-(5-(3-fluoro-4-methoxyphenyl)-1H-pyrrolo[2,3-b]pyridin-3-yl)-5,6-dihydropyridine-1(2H)-carboxylate] | 880 |
| O=C(OC1CCCC1)N1CC=C(c2c[nH]c3ncc(-c4ccc(S(=O)(=O)C5CC5)cc4)cc23)CC1 [Example 175, Cyclopentyl 4-(5-(4-(cyclopropylsulfonyl)phenyl)-1H-pyrrolo[2,3-b]pyridin-3-yl)-5,6-dihydropyridine-1(2H)-carboxylate] | 350 |
| O=C(OC1CCCC1)N1CC=C(c2c[nH]c3ncc(-c4cccc(S(=O)(=O)N5CCOCC5)c4)cc23)CC1 [Example 180, Cyclopentyl 4-(5-(3-(morpholinosulfonyl)phenyl)-1H-pyrrolo[2,3-b]pyridin-3-yl)-5,6-dihydropyridine-1(2H)-carboxylate] | 400 |
| O=C(OC1CCCC1)N1CC=C(c2c[nH]c3ncc(-c4ccc(S(=O)(=O)N5CCOCC5)cc4)cc23)CC1 [Example 181, Cyclopentyl 4-(5-(4-(morpholinosulfonyl)phenyl)-1H-pyrrolo[2,3-b]pyridin-3-yl)-5,6-dihydropyridine-1(2H)-carboxylate] | 370 |

Now those with a lower IC50, led by results:

| IC50 [nM] | SMILES |
| --- | --- |
| 190 | CCS(=O)(=O)c1cccc(-c2cnc3[nH]cc(C4=CCN(C(=O)OC5CCCC5)CC4)c3c2)c1 [Example 174, Cyclopentyl 4-(5-(3-(ethylsulfonyl)phenyl)-1H-pyrrolo[2,3-b]pyridin-3-yl)-5,6-dihydropyridine-1(2H)-carboxylate] |
| 180 | COc1ccc(-c2cnc3[nH]cc(C4=CCN(C(=O)OC5CCCC5)CC4)c3c2)cc1S(=O)(=O)N1CCOCC1 [Example 182, Cyclopentyl 4-(5-(4-methoxy-3-(morpholinosulfonyl)phenyl)-1H-pyrrolo[2,3-b]pyridin-3-yl)-5,6-dihydropyridine-1(2H)-carboxylate] |
| 170 | CNS(=O)(=O)c1ccc(-c2cnc3[nH]cc(C4=CCN(C(=O)OC5CCCC5)CC4)c3c2)cc1 [Example 178, Cyclopentyl 4-(5-(4-(N-methylsulfamoyl)phenyl)-1H-pyrrolo[2,3-b]pyridin-3-yl)-5,6-dihydropyridine-1(2H)-carboxylate] |
| 120 | CS(=O)(=O)c1ccc(-c2cnc3[nH]cc(C4=CCN(C(=O)OC5CCCC5)CC4)c3c2)cc1 [Example 173, Cyclopentyl 4-(5-(4-(methylsulfonyl)phenyl)-1H-pyrrolo[2,3-b]pyridin-3-yl)-5,6-dihydropyridine-1(2H)-carboxylate] |
| 97 | CNS(=O)(=O)c1cccc(-c2cnc3[nH]cc(C4=CCN(C(=O)OC5CCCC5)CC4)c3c2)c1 [Example 177, Cyclopentyl 4-(5-(3-(N-methylsulfamoyl)phenyl)-1H-pyrrolo[2,3-b]pyridin-3-yl)-5,6-dihydropyridine-1(2H)-carboxylate] |
| 78 | CC(C)(C)OC(=O)N1CC=C(c2c[nH]c3ncc(-c4cccc(S(C)(=O)=O)c4)cc23)CC1 [Example 162, tert-Butyl 4-(5-(3-(methylsulfonyl)phenyl)-1H-pyrrolo[2,3-b]pyridin-3-yl)-5,6-dihydropyridine-1(2H)-carboxylate] |
| 59 | CNS(=O)(=O)c1cccc(-c2cnc3[nH]cc(C4=CCN(C(=O)OC(C)(C)C)CC4)c3c2)c1 [Example 163, tert-Butyl 4-(5-(3-(N-methylsulfamoyl)phenyl)-1H-pyrrolo[2,3-b]pyridin-3-yl)-5,6-dihydropyridine-1(2H)-carboxylate] |
| 55 | CS(=O)(=O)c1cccc(-c2cnc3[nH]cc(C4=CCN(C(=O)OC5CCCC5)CC4)c3c2)c1 [Example 172, Cyclopentyl 4-(5-(3-(methylsulfonyl)phenyl)-1H-pyrrolo[2,3-b]pyridin-3-yl)-5,6-dihydropyridine-1(2H)-carboxylate] |
| 52 | NS(=O)(=O)c1ccc(-c2cnc3[nH]cc(C4=CCN(C(=O)OC5CCCC5)CC4)c3c2)cc1 [Example 176, Cyclopentyl 4-(5-(4-sulfamoylphenyl)-1H-pyrrolo[2,3-b]pyridin-3-yl)-5,6-dihydropyridine-1(2H)-carboxylate] |
| 39 | CC(C)(C)OC(=O)N1CC=C(c2c[nH]c3ncc(-c4ccc(C(=O)N5CCOCC5)cc4)cc23)CC1 [Example 155, tert-Butyl 4-(5-(4-(morpholine-4-carbonyl)phenyl)-1H-pyrrolo[2,3-b]pyridin-3-yl)-5,6-dihydropyridine-1(2H)-carboxylate] |
| 39 | O=C(OC1CCCC1)N1CC=C(c2c[nH]c3ncc(-c4ccc(C(=O)N5CCOCC5)cc4)cc23)CC1 [Example 183, Cyclopentyl 4-(5-(4-(morpholine-4-carbonyl)phenyl)-1H-pyrrolo[2,3-b]pyridin-3-yl)-5,6-dihydropyridine-1(2H)-carboxylate] |
| 28 | CNS(=O)(=O)c1ccc(-c2cnc3[nH]cc(C4=CCN(C(=O)OC(C)(C)C)CC4)c3c2)cc1 [Example 165, tert-Butyl 4-(5-(4-(N-methylsulfamoyl)phenyl)-1H-pyrrolo[2,3-b]pyridin-3-yl)-5,6-dihydropyridine-1(2H)-carboxylate] |
